Experimental data as given in patent publication US20260199497A1, “GLUCOCORTICOID RECEPTOR AGONIST AND CONJUGATE THEREOF” (priority 2023, published 2026).
pEC50: −log10 of the molar value.

Experiments:
glucocorticoid receptor [1] = biological target: T1, glucocorticoid receptor (Homo sapiens, UniProt P04150); test: GRE reporter gene test (Experiment Example 1), HEK293T cells transfected with pGL4.35 and p-Bind GR Vector; type: cell-based; conditions: for pEC50: GRE reporter gene, HEK293T cells, 18-20 h incubation; for Emax: HEK-293T, read-out: Emax; for maximum agonistic effect (Emax): compared with dexamethasone, transfected HEK293T cells
T1 sequence (P04150 524-777 limits assumed): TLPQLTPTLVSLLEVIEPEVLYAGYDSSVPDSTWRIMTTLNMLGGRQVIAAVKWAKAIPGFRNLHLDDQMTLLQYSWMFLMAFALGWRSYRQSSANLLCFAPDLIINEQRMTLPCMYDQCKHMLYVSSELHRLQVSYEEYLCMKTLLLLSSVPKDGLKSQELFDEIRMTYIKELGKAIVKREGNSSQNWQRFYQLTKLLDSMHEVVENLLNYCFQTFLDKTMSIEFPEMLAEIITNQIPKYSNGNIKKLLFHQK
Protocol: The compound of the present invention to be tested was formulated into a 10 mM solution with DMSO, and then subjected to 4-fold dilution at 10 concentration points using DMSO to obtain a 1000× mother liquor, with a final test concentration of 0.000038-10 μM.
(§1) HEK293T cells (ATCC) were plated in a 100 mm culture dish at a density of 6*10^6 cells/culture dish, and cultured for 16 h under the conditions of 37° C. and 5% CO2. Plasmids (pGL4.35 [luc2P/9XGAL4 UAS/Hygro], p-Bind GR Vector, Promega) and Lipofectamine® 3000 (Invitrogen) were mixed, added into the culture dish, and then incubated for 5-6 h under the conditions of 37° C. and 5% CO2.
In a 384-well plate (PerkinElmer), 25 nL of the compound mother liquor was added, and then HEK293T cells transfected with plasmids were added at a density of 18000 cells/well. The cells were incubated for 18-20 h under the conditions of 37° C. and 5% CO2.
After the incubation was ended, 25 μL of britelite plus luciferase assay reagent (PerkinElmer) was added, and then reading was performed using an Envision 2105 multiplate reader (PerkinElmer).
(§2) The activity was calculated using the following formula, % activity=100*(signal of compound well−average signal of negative control well)/(average signal of positive control well−average signal of negative control well). […] Fitting calculation of EC50 was performed on % activity and the logarithmic concentration of the compound using Graphpad 8.0, Y=Bottom+(Top−Bottom)/(1+10^((Log EC50−X)*HillSlope)), wherein Y is % activity, and X is the logarithmic concentration of the compound.

glucocorticoid receptor [2] = biological target: T1, glucocorticoid receptor; test: GRE reporter gene test (Experiment Example 2), HEK293T cells transfected with pGL4.35 and p-Bind GR Vector; type: cell-based; conditions: for pEC50: GRE reporter gene, HEK293T cells, 18-20 h incubation; for Emax: HEK-293T; for maximum agonistic activity (Emax): compared with dexamethasone, transfected HEK293T cells
Protocol: The compound of the present invention to be tested was formulated into a 1 mM solution with DMSO, and then subjected to 4-fold dilution at 10 concentration points using DMSO to obtain a 1000× mother liquor, with a final test concentration of 0.0000038-1 μM.
as §1
In a 384-well plate (PerkinElmer), 25 nL of the compound mother liquor was added, and then HEK293T cells transfected with plasmids were added at a density of 18000 cells/well (25 μL). The cells were incubated for 18-20 h under the conditions of 37° C. and 5% CO2.
After the incubation was ended, 25 μL of britelite plus luciferase assay reagent (PerkinElmer) was added, and then reading was performed using an Envision 2105 multimode reader (PerkinElmer).
as §2

SMILES | pEC50 (glucocorticoid receptor [1]) | Emax (glucocorticoid receptor [1]) [%] | maximum agonistic effect (Emax) (glucocorticoid receptor [1]) | pEC50 (glucocorticoid receptor [2]) | Emax (glucocorticoid receptor [2]) [%] | maximum agonistic activity (Emax) (glucocorticoid receptor [2])
C[C@@H]1C[C@H]2[C@@H]3C[C@H](F)C4=CC(=O)C=C[C@]4(C)[C@@]3(F)[C@@H](O)C[C@]2(C)[C@@]1(OC(=O)c1ccnc(N)c1)C(=O)SCF [P-1, (6S,8S,9R,10S,11S,13S,14S,16R,17R)-6,9-difluoro-17-(((fluoromethyl)thio)carbonyl)-11-hydroxy-10,13,16-trimethyl-3-oxo-6,7,8,9,10,11,12,13,14,15,16,17-dodecahydro-3H-cyclopenta[a]phenanthren-17-yl 2-aminoisonicotinate] | 8.85 | 91.2 |  |  |  | 
C[C@@H]1C[C@H]2[C@@H]3C[C@H](F)C4=CC(=O)C=C[C@]4(C)[C@@]3(F)[C@@H](O)C[C@]2(C)[C@@]1(OC(=O)c1ccc(F)cc1)C(=O)SCF [H-5] | 9.80 | 107 | superior to dexamethasone |  |  | 
C[C@@H]1C[C@H]2[C@@H]3C[C@H](F)C4=CC(=O)C=C[C@]4(C)[C@@]3(F)[C@@H](O)C[C@]2(C)[C@@]1(OC(=O)/C=C/c1ccc(F)c(N)c1)C(=O)SCF [E-3] | 8.92 | 97.2 |  |  |  | 
C[C@@H]1C[C@H]2[C@@H]3C[C@H](F)C4=CC(=O)C=C[C@]4(C)[C@@]3(F)[C@@H](O)C[C@]2(C)[C@@]1(OC(=O)C[C@@H](C)O)C(=O)SCF [D-19, (6S,8S,9R,10S,11S,13S,14S,16R,17R)-6,9-difluoro-17-(((fluoromethyl)thio)carbonyl)-11-hydroxy-10,13,16-trimethyl-3-oxo-6,7,8,9,10,11,12,13,14,15,16,17-dodecahydro-3H-cyclopenta[a]phenanthren-17-yl (R)-3-hydroxybutyrate] |  |  |  | 8.92 | 120 | superior to dexamethasone
C[C@@H]1C[C@H]2[C@@H]3C[C@H](F)C4=CC(=O)C=C[C@]4(C)[C@@]3(F)[C@@H](O)C[C@]2(C)[C@@]1(OC(=O)c1cc(N)co1)C(=O)SCF [F-2, (6S,8S,9R,10S,11S,13S,14S,16R,17R)-6,9-difluoro-17-(((fluoromethyl)thio)carbonyl)-11-hydroxy-10,13,16-trimethyl-3-oxo-6,7,8,9,10,11,12,13,14,15,16,17-dodecahydro-3H-cyclopenta[a]phenanthren-17-yl 4-aminofuran-2-carboxylate] | 8.92 | 125 | superior to dexamethasone |  |  | 
C[C@@H]1C[C@H]2[C@@H]3C[C@H](F)C4=CC(=O)C=C[C@]4(C)[C@@]3(F)[C@@H](O)C[C@]2(C)[C@@]1(OC(=O)c1ccc(F)c(N)c1)C(=O)OCF [O-1, fluoromethyl (6S,8S,9R,10S,11S,13S,14S,16R,17R)-17-((3-amino-4-fluorobenzoyl)oxy)-6,9-difluoro-11-hydroxy-10,13,16-trimethyl-3-oxo-6,7,8,9,10,11,12,13,14,15,16,17-dodecahydro-3H-cyclopenta[a]phenanthrene-17-carboxylate] | 9.70 | 87.3 |  |  |  | 
CC(O)CC(=O)O[C@]1(C(=O)SCF)[C@H](C)C[C@H]2[C@@H]3C[C@H](F)C4=CC(=O)C=C[C@]4(C)[C@@]3(F)[C@@H](O)C[C@@]21C (stereo partly drawn) [D-11] |  |  |  | 9.10 | 115 | superior to dexamethasone
C[C@@H]1C[C@H]2[C@@H]3C[C@H](F)C4=CC(=O)C=C[C@]4(C)[C@@]3(F)[C@@H](O)C[C@]2(C)[C@@]1(OC(=O)c1cccc(CO)c1)C(=O)SCF [B-35, (6S,8S,9R,10S,11S,13S,14S,16R,17R)-6,9-difluoro-17-(((fluoromethyl)thio)carbonyl)-11-hydroxy-10,13,16-trimethyl-3-oxo-6,7,8,9,10,11,12,13,14,15,16,17-dodecahydro-3H-cyclopenta[a]phenanthren-17-yl 3-(hydroxymethyl)benzoate] |  |  |  | 8.62 | 66.2 | 
C[C@@H]1C[C@H]2[C@@H]3C[C@H](F)C4=CC(=O)C=C[C@]4(C)[C@@]3(F)[C@@H](O)C[C@]2(C)[C@@]1(OC(=O)c1ccc(CO)o1)C(=O)SCF [F-13, (6S,8S,9R,10S,11S,13S,14S,16R,17R)-6,9-difluoro-17-(((fluoromethyl)thio)carbonyl)-11-hydroxy-10,13,16-trimethyl-3-oxo-6,7,8,9,10,11,12,13,14,15,16,17-dodecahydro-3H-cyclopenta[a]phenanthren-17-yl 5-(hydroxymethyl)furan-2-carboxylate] |  |  |  | 8.89 | 104 | 
C[C@]12C=CC(=O)C=C1[C@@H](F)C[C@H]1[C@@H]3CC[C@](OC(=O)/C=C/c4ccc(F)c(N)c4)(C(=O)SCF)[C@@]3(C)C[C@H](O)[C@@]12F [E-4] |  |  |  | 9.00 | 84.8 | 
C[C@@H]1C[C@H]2[C@@H]3C[C@H](F)C4=CC(=O)C=C[C@]4(C)[C@@]3(F)[C@@H](O)C[C@]2(C)[C@@]1(OC(=O)c1ccccc1O)C(=O)SCF [B-25] | 9.89 | 85.6 |  |  |  | 
C[C@]12C=CC(=O)C=C1CC[C@H]1[C@@H]3CC[C@](OC(=O)c4ccc(F)c(N)c4)(C(=O)SCF)[C@@]3(C)C[C@H](O)[C@@]12F [A-2] |  |  |  | 8.77 | 93.7 | 
C[C@@H]1C[C@H]2[C@@H]3C[C@H](F)C4=CC(=O)C=C[C@]4(C)[C@@]3(F)[C@@H](O)C[C@]2(C)[C@@]1(OC(=O)c1ccc(CO)cc1)C(=O)SCF [B-31, (6S,8S,9R,10S,11S,13S,14S,16R,17R)-6,9-difluoro-17-(((fluoromethyl)thio)carbonyl)-11-hydroxy-10,13,16-trimethyl-3-oxo-6,7,8,9,10,11,12,13,14,15,16,17-dodecahydro-3H-cyclopenta[a]phenanthren-17-yl 4-(hydroxymethyl)benzoate] |  |  |  | 9.49 | 92.5 | 
C[C@@H]1C[C@H]2[C@@H]3C[C@H](F)C4=CC(=O)C=C[C@]4(C)[C@@]3(F)[C@@H](O)C[C@]2(C)[C@@]1(OC(=O)c1cccc(O)c1)C(=O)SCF [B-1] | 9.72 | 105 | superior to dexamethasone |  |  | 
CC(O)C(=O)O[C@]1(C(=O)SCF)[C@H](C)C[C@H]2[C@@H]3C[C@H](F)C4=CC(=O)C=C[C@]4(C)[C@@]3(F)[C@@H](O)C[C@@]21C (stereo partly drawn) [D-9] |  |  |  | 8.44 | 146 | superior to dexamethasone
C[C@@H]1C[C@H]2[C@@H]3C[C@H](F)C4=CC(=O)C=C[C@]4(C)[C@@]3(F)[C@@H](O)C[C@]2(C)[C@@]1(OC(=O)c1cc(CO)co1)C(=O)SCF [F-9, (6S,8S,9R,10S,11S,13S,14S,16R,17R)-6,9-difluoro-17-(((fluoromethyl)thio)carbonyl)-11-hydroxy-10,13,16-trimethyl-3-oxo-6,7,8,9,10,11,12,13,14,15,16,17-dodecahydro-3H-cyclopenta[a]phenanthren-17-yl 4-(hydroxymethyl)furan-2-carboxylate] |  |  |  | 9.40 | 134 | superior to dexamethasone
C[C@@H]1C[C@H]2[C@@H]3C[C@H](F)C4=CC(=O)C=C[C@]4(C)[C@@]3(F)[C@@H](O)C[C@]2(C)[C@@]1(OC(=O)c1ccc(F)c(N)c1)C(=O)OCCl [O-3, chloromethyl (6S,8S,9R,10S,11S,13S,14S,16R,17R)-17-((3-amino-4-fluorobenzoyl)oxy)-6,9-difluoro-11-hydroxy-10,13,16-trimethyl-3-oxo-6,7,8,9,10,11,12,13,14,15,16,17-dodecahydro-3H-cyclopenta[a]phenanthrene-17-carboxylate] | 9.40 | 87.7 |  |  |  | 
C[C@]12C=CC(=O)C=C1[C@@H](F)C[C@H]1[C@@H]3CC[C@](OC(=O)c4cc(CO)co4)(C(=O)SCF)[C@@]3(C)C[C@H](O)[C@@]12F [F-10] |  |  |  | 9.22 | 150 | superior to dexamethasone
C[C@@H]1C[C@H]2[C@@H]3C[C@H](F)C4=CC(=O)C=C[C@]4(C)[C@@]3(F)[C@@H](O)C[C@]2(C)[C@@]1(OC(=O)c1ccco1)C(=O)SCCO [F-21, (6S,8S,9R,10S,11S,13S,14S,16R,17R)-6,9-difluoro-11-hydroxy-17-((2-hydroxyethyl)thio)carbonyl-10,13,16-trimethyl-3-oxo-6,7,8,9,11,12,13,14,15,16,17-dodecahydro-3H-cyclopenta[a]phenanthren-17-yl furan-2-carboxylate] |  |  |  | 8.89 | 139 | superior to dexamethasone
